Results on 21 molecules are retold here after patent US20170334899A1, “AMINO-SUBSTITUTED ISOTHIAZOLES” (Bayer Pharma Aktiengesellschaft, priority 2014, published 2017).

Assay [1] has as its target T1, catalytic domain of human Bub1 (amino acids 704-1085) (Homo sapiens, UniProt O43683).
T1 construct: catalytic domain of human Bub1 (amino acids 704-1085); His6 (N); made in house; host or cells: insect cells (Hi5)
Description: Bub1 kinase assay (TR-FRET). The format is biochemical. Conditions: 10 μM ATP, avg, read-out: Bub1 avg (IC50 [mol/l]). From the text: Bub1-inhibitory activity of compounds of the present invention was quantified employing the Bub1 TR-FRET assay as described in the following paragraphs.
N-terminally His6-tagged recombinant catalytic domain of human Bub1 (amino acids 704-1085), expressed in insect cells (Hi5) and purified by Ni-NTA affinity chromatography and subsequent size exclusion chromatography, was used as enzyme. As substrate for the kinase reaction the biotinylated peptide biotin-Ahx-VLLPKKSFAEPG (C-terminus in amid form) was used which can be purchased e.g. form the company Biosyntan (Berlin, Germany).
For the assay 50 nl of a 100fold concentrated solution of the test compound in DMSO was pipetted into a black low volume 384well microtiter plate (Greiner Bio-One, Frickenhausen, Germany), 2 μl of a solution of Bub1 in aqueous assay buffer [50 mM Tris/HCl pH 7.5, 10 mM magnesium chloride (MgCl2), 200 mM potassium chloride (KCl), 1.0 mM dithiothreitol (DTT), 0.1 mM sodium ortho-vanadate, 1% (v/v) glycerol, 0.01% (w/v) bovine serum albumine (BSA), 0.005% (v/v) Trition X-100 (Sigma), 1× Complete EDTA-free protease inhibitor mixture (Roche)] were added and the mixture was incubated for 15 min at 22° C. to allow pre-binding of the test compounds to the enzyme before the start of the kinase reaction. Then the kinase reaction was started by the addition of 3 μl of a solution of adenosine-tri-phosphate (ATP, 16.7 μM=>final conc. in the 5 μl assay volume is 10 μM) and substrate (1.67 μM=>final conc. in the 5 μl assay volume is 1 μM) in assay buffer and the resulting mixture was incubated for a reaction time of 60 min at 22° C. The concentration of Bub1 was adjusted depending of the activity of the enzyme lot and was chosen appropriate to have the assay in the linear range, typical concentrations were in the range of 200 ng/ml. The reaction was stopped by the addition of 5 μl of a solution of TR-FRET detection reagents (0.2 μM streptavidine-XL665 [Cisbio Bioassays, Codolet, France] and 1 nM anti-phosho-Serine antibody [Merck Millipore, cat. #35-001] and 0.4 nM LANCE EU-W1024 labeled anti-mouse IgG antibody [Perkin-Elmer, product no. AD0077, as an alternative a Terbium-cryptate-labeled anti-mouse IgG antibody from Cisbio Bioassays can be used]) in an aqueous EDTA-solution (50 mM EDTA, 0.2% (w/v) bovine serum albumin in 100 mM HEPES pH 7.5).
The resulting mixture was incubated 1 h at 22° C. to allow the formation of complex between the phosphorylated biotinylated peptide and the detection reagents. Subsequently the amount of phosphorylated substrate was evaluated by measurement of the resonance energy transfer from the Eu-chelate to the streptavidine-XL. Therefore, the fluorescence emissions at 620 nm and 665 nm after excitation at 350 nm was measured in a TR-FRET reader, e.g. a Rubystar or Pherastar (both from BMG Labtechnologies, Offenburg, Germany) or a Viewlux (Perkin-Elmer). The ratio of the emissions at 665 nm and at […] was taken as the measure for the amount of phosphorylated substrate. The data were normalised (enzyme reaction without inhibitor=0% inhibition, all other assay components but no enzyme=100% inhibition).
(In general: TR-FRET usually uses a lanthanide donor and a delayed reading to cut background.)

In assay [2] the test system is human cervical tumor cell line HeLa (ATCC CCL-2). As to the kind of experiment: SAC-Formation - Nocodazole-Induced Assay. The following applies: Homo sapiens, HeLa, 24 h, HeLa cells, nocodazole 0.1 μg/ml together with test compound, decrease of mitotic cells (phospho-histone H3 Ser10). The format is cell-based. The gist of the method: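 HeLa cells, plated overnight, were treated 24 h at 37 °C with nocodazole (0.1 μg/ml final) plus test compound (0.005–20 μM, 0.5% DMSO) added at the same time. After fixation, anti-phospho-histone H3 Ser10 and Hoechst staining gave the mitotic cell fraction by imaging. Values came from four-parameter Hill fits.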

T1 sequence (O43683 704-1085): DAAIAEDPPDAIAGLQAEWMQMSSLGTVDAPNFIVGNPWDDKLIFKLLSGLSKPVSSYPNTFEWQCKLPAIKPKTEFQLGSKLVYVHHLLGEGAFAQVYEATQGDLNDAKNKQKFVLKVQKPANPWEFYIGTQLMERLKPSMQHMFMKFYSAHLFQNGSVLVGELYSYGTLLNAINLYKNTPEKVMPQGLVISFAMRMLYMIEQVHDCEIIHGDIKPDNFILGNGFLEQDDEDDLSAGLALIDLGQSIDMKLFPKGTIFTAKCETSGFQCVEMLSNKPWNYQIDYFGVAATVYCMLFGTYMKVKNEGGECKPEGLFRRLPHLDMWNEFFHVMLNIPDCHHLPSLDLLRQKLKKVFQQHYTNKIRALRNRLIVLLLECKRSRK

For the molecule `Cc1nsc(Nc2ccc(C#N)cn2)c1C(=O)Nc1ccc(C(=O)OC(C)(C)C)cc1` [Example 98, tert-Butyl 4-[({5-[(5-cyanopyridin-2-yl)amino]-3-methyl-1,2-thiazol-4-yl}carbonyl)-amino]benzoate], the IC50 in assay [1] is at least 20000 nM; in assay [2], 3.8 nM.

Consider `Cc1nsc(Nc2cnc3ccccc3n2)c1C(=O)Nc1cccc(C(=O)NCC(=O)O)c1` [Example 99, N-[3-({[3-Methyl-5-(quinoxalin-2-ylamino)-1,2-thiazol-4-yl]carbonyl}amino)benzoy]-glycine], for which the IC50 in assay [1] was 2700 nM; in assay [2], 1100 nM.

Regarding `COC(=O)CNC(=O)c1cccc(NC(=O)c2c(C)nsc2Nc2cnc3ccccc3n2)c1` [Example 100, Methyl N-[3-({[3-methyl-5-(quinoxalin-2-ylamino)-1,2-thiazol-4-yl]carbonyl}amino)-benzoyl]glycinate], the figures for the IC50 in assay [1] and in assay [2] were 9000 nM and 1500 nM, respectively.

As to `Cc1nsc(Nc2cnc3ccccc3n2)c1C(=O)Nc1cccc(C(=O)N2CCNCC2)c1` [Example 101, 3-Methyl-N-[3-(piperazin-1-ylcarbonyl)phenyl]-5-(quinoxalin-2-ylamino)-1,2-thiazole-4-carboxamide], the IC50 in assay [1] amounted to 7600 nM; in assay [2], 1800 nM.

Regarding `Cc1nsc(Nc2cnc3ccccc3n2)c1C(=O)Nc1cccc(C(=O)N2CCN(C)CC2)c1` [Example 102, 3-Methyl-N-{3-[(4-methylpiperazin-1-yl)carbonyl]phenyl}-5-(quinoxalin-2-ylamino)-1,2-thiazole-4-carboxamide], the IC50 in assay [1] came to 19000 nM; in assay [2] it was 4900 nM.

For `Cc1nsc(Nc2cnc3ccccc3n2)c1C(=O)Nc1cccc(C(=O)N[C@@H](CCC(N)=O)C(=O)O)c1` [Example 103, N^2-[3-({[3-Methyl-5-(quinoxalin-2-ylamino)-1,2-thiazol-4-yl]carbonyl}amino)-benzoyl]glutamine], the IC50 in assay [1] was at least 20000 nM; in assay [2], 13000 nM.

Regarding `Cc1nsc(Nc2cnc3ccccc3n2)c1C(=O)Nc1cccc(C(=O)N[C@H](C(=O)O)[C@@H](C)OC(C)(C)C)c1` [Example 104, O-tert-Butyl-N-[3-({[3-methyl-5-(quinoxalin-2-ylamino)-1,2-thiazol-4-yl]-carbonyl}amino)benzoyl]threonine], the values for the IC50 in assay [1] and in assay [2] were at least 20000 nM and 1800 nM, respectively.

`Cc1nsc(Nc2cnc3ccccc3n2)c1C(=O)Nc1cccc(C(=O)N[C@H](C(=O)O)[C@@H](C)O)c1` [Example 105, N-[3-({[3-methyl-5-(quinoxalin-2-ylamino)-1,2-thiazol-4-yl]carbonyl}amino)-benzoyl]threonine]: the IC50 in assay [1] came out at 19000 nM; in assay [2] it was 20000 nM.

Regarding `Cc1noc(-c2cccc(NC(=O)c3c(C)nsc3Nc3cnc4ccccc4n3)c2)n1` [Example 106, 3-Methyl-N-[3-(3-methyl-1,2,4-oxadiazol-5-yl)phenyl]-5-(quinoxalin-2-ylamino)-1,2-thiazole-4-carboxamide], the values for the IC50 in assay [1] and in assay [2] were at least 20000 nM and 140 nM, respectively.

As to `Cc1nsc(Nc2cnc3ccccc3n2)c1C(=O)Nc1cccc(-c2nnc(C(C)(C)C)o2)c1` [Example 107, N-[3-(5-tert-Butyl-1,3,4-oxadiazol-2-yl)phenyl]-3-methyl-5-(quinoxalin-2-ylamino)-1,2-thiazole-4-carboxamide], the IC50 in assay [1] was at least 20000 nM; in assay [2], 11 nM.

`Cc1nsc(Nc2cnc3ccccc3n2)c1C(=O)Nc1cccc(-c2nc(C(C)(C)C)no2)c1` [Example 108, N-[3-(3-tert-Butyl-1,2,4-oxadiazol-5-yl)phenyl]-3-methyl-5-(quinoxalin-2-ylamino)-1,2-thiazole-4-carboxamide]: the results for the IC50 in assay [1] and in assay [2] were at least 20000 nM and 19 nM, respectively.

With `Cc1nsc(Nc2cnc(C(F)(F)F)cn2)c1C(=O)Nc1ccc(OCC2CCN(C(=O)OC(C)(C)C)C2)nc1` (stereo not drawn) [Example 109, tert-Butyl 3-{[(5-{[(3-methyl-5-{[5-(trifluoromethyl)pyrazin-2-yl]amino}-1,2-thiazol-4-yl)carbonyl]amino}pyridin-2-yl)oxy]methyl}pyrrolidine-1-carboxylate], the IC50 is at least 20000 nM in assay [1] and 7 nM in assay [2].

In the case of `Cc1nsc(Nc2cncc(C(F)(F)F)n2)c1C(=O)Nc1ccc(OCC2CCN(C(=O)OC(C)(C)C)C2)nc1` (stereo not drawn) [Example 110, tert-Butyl 3-{[(5-{[(3-methyl-5-{[6-(trifluoromethyl)pyrazin-2-yl]amino}-1,2-thiazol-4-yl)carbonyl]amino}pyridin-2-yl)oxy]methyl}pyrrolidine-1-carboxylate], the IC50 is at least 20000 nM in assay [1] and 35 nM in assay [2].

With `CNS(=O)(=O)c1ccc(NC(=O)c2c(C)nsc2Nc2cnc3ccccc3n2)cc1` [Example 111, 3-Methyl-N-[4-(methylsulfannoyl)phenyl]-5-(quinoxalin-2-ylamino)-1,2-thiazole-4-carboxamide], the IC50 in assay [1] was at least 20000 nM; in assay [2], 110 nM.

In the case of `CC(=O)N(C)CCOc1ccc(NC(=O)c2c(C)nsc2Nc2nc3c(C(F)(F)F)cccc3s2)cn1` [Example 112, N-(6-{2-[Acetyl(methyl)amino]-ethoxy}pyridin-3-yl)-3-methyl-5-{[4-(trifluoromethyl)-1,3-benzothiazol-2-yl]amino}-1,2-thiazole-4-carboxamide], the IC50 is at least 20000 nM in assay [1] and 230 nM in assay [2].

In the case of `Cc1nsc(Nc2cnc3ccccc3n2)c1C(=O)Nc1cccc(C(=O)N2CCCC2)c1` [Example 113, 3-Methyl-N-[3-(pyrrolidin-1-ylcarbonyl)phenyl]-5-(quinoxalin-2-ylamino)-1,2-thiazole-4-carboxamide], the IC50 in assay [1] is 18000 nM; in assay [2], 210 nM.

For `Cc1nsc(Nc2cc(C#N)ccn2)c1C(=O)Nc1cccc(C(=O)N2CCCC2)c1` [Example 114, 5-[(4-Cyanopyridin-2-yl)amino]-3-methyl-N-[3-(pyrrolidin-1-ylcarbonyl)phenyl]-1,2-thiazole-4-carboxamide], the IC50 in assay [1] was at least 20000 nM; in assay [2], 210 nM.

For the molecule `Cc1nsc(Nc2cnc3ccccc3n2)c1C(=O)Nc1ccc(S(C)(=O)=O)cc1` [Example 115, 3-Methyl-N-[4-(methylsulfonyl)phenyl]-5-(quinoxalin-2-ylamino)-1,2-thiazole-4-carboxamide], the IC50 worked out at 8900 nM in assay [1] and 1200 nM in assay [2].

For the molecule `CCNS(=O)(=O)c1ccc(NC(=O)c2c(C)nsc2Nc2cnc3ccccc3n2)cc1` [Example 116, N-[4-(Ethylsulfamoyl)phenyl]-3-methyl-5-(quinoxalin-2-ylamino)-1,2-thiazole-4-carboxamide], the IC50 in assay [1] was at least 20000 nM; in assay [2], 810 nM.

Turning to `Cc1nsc(Nc2cnc3ccccc3n2)c1C(=O)Nc1ccc(Oc2cccc(C(F)(F)F)c2)nc1` [Example 117, 3-Methyl-5-(quinoxalin-2-ylamino)-N-{6-[3-(trifluoromethyl)phenoxy]pyridin-3-yl}-1,2-thiazole-4-carboxamide], the IC50 was at least 20000 nM in assay [1] and 190 nM in assay [2].

Consider `Cc1nsc(Nc2ccc(C#N)cn2)c1C(=O)Nc1ccc(Oc2cccc(C(F)(F)F)c2)nc1` [Example 118, 5-[(5-Cyanopyridin-2-yl)amino]-3-methyl-N-{6-[3-(trifluoromethyl)phenoxy]pyridin-3-yl}-1,2-thiazole-4-carboxamide], for which the IC50 in assay [1] was at least 20000 nM; in assay [2], 110 nM.
